This is an account of results in patent US20200276211A1, “COMPOUNDS FOR TREATING NEAR VISION DISORDERS” (VIEWPOINT THERAPEUTICS, INC., priority 2017, published 2020).

Where two headings read alike, the source gives them in different places.

Data set [1] can be described thus: Plasma stability (rabbit). In kind it is in vitro ADME. The note with it: 37° C., read-out: Plasma stability (rabbit) t ½. On the procedure: (§1) A 4 mM compound stock solution was prepared by dissolving the appropriate amount of compound in MeOH, then a […] was prepared by adding 2 μL aforementioned 4 mM stock solution in 78 μL DMSO. A 10 mM control stock solution was prepared by dissolving the appropriate amount of tetracaine in DMSO, then a 10 μM control working solution was prepared by diluting the stock in DMSO. A 1 mg/ml terfenadine mixed with 2 mg/mL tolbutamide stock solution was prepared by dissolving an appropriate amount of each in DMSO, then a 1 ng/mL terfenadine mixed with 2 ng/mL tolbutamide internal standard solution was prepared by diluting the stock solution in methanol:acetonitrile (1:1, v/v). Both stock and internal standard solutions were stored at 4° C. Whole blood was centrifuged (obtained from in life group or donors) at 4000 rpm at 4° C. for 15 min to obtain plasma. Plasma was stored at −80° C. for future use. Before use, plasma was pre-warmed at 37° C. in a water bath for 15 min (500 μL per compound or control). After warming, 5 μL compound or control was added into 495 μL plasma, then vortexed to mix. […] The MS detection was performed using a Sciex API 4000 Qtrap and 6500 Plus instrument, and each compound was analyzed by reverse phase HPLC.

Data set [2] is described as follows: Solubility remark in amyloid disaggregation assay. In kind it is physicochemical. The note with it: assay solution, 5% DMSO. The method, then:
The procedure used to evaluate disassembly of amyloids in ex vivo cataractous solutions was adapted from Chemerovski-Glikman et al., Scientific Reports 8, Article number: 9341 (2018). Nuclear and cortical lens tissue from human donors (92F, 96M) was homogenized in PBS with protease inhibitor for 60 seconds on ice. The protein concentration of the lysate was measured by Bicinchoninic Acid Assay (Pierce BCA Protein Assay Kit, ThermoFisher), and then the lysate was diluted to a total protein concentration of 0.075 mg/mL. Thioflavin T dye (Sigma-Aldrich) was added to a final concentration of 1 μM. […] After incubation with orbital shaking at 37° C., the fluorescence was read every two hours for 94 hours at an excitation wavelength of 440 nm and emission wavelength of 485 nm. Results of the assay for compounds 1.18, 1.21, 1.25 or control are in FIG. 3.

The nature of data set [3]: Plasma stability (human). It counts as in vitro ADME. The note with it: 37° C., read-out: Plasma stability (human) t ½. The method, then:
as §1

The target in data set [4] is T1, recombinant alpha-crystallin core domain (ACD) of cryAB protein (residues 68-153) (Homo sapiens, UniProt P02511).
T1 construct: alpha-crystallin core domain (ACD) of cryAB protein (residues 68-153)
T1 sequence (P02511 68-153): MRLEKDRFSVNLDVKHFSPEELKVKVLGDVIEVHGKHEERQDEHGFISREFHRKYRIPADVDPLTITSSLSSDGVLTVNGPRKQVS
The data set is described as follows: Differential scanning fluorimetry (DSF), protein thermal stability change. In kind it is binding. The note with it: SYPRO orange. On the procedure:
2.4 μL of 10 mM compound stocks in DMSO were added to the wells of a 96-well plate containing 51.6 μL of 7 μM recombinant alpha-crystallin core domain (ACD) of cryAB protein (residues 68-153) in DSF buffer (50 mM Tris-HCl, 100 mM NaCl, 0.5 mM ZnCl2, 0.5 mM MgCl2, 0.5 mM CaCl2, pH8.0), and subsequently 6 μL 10× SYPRO orange protein gel stain (Invitrogen) was added for a final volume of 60 μL per well. Each well was mixed, and then 10 μL was added in quadruplicates to a MicroAmp Optical 384-well reaction plate with barcode (ThermoFisher). The plate was sealed with a MicroAmp Optical adhesive film (ThermoFisher), centrifuged at 1,000×g for 2 min, and loaded into a QuantStudio 6 Flex real-time PCR system (Applied Biosystems). The DSF assay was performed by heating the plate from 30° C. to 80° C. with 0.5° C. increments per cycle over 100 cycles. Each cycle was held for 90 s after reaching the temperature, and the fluorescent signal (520 nm excitation/558 nm emission) was measured.
The data curve was fitted using a Boltzmann model (GraphPad Prism Version 7) for a fitting range from 25° C. to the temperature at which the fluorescence signal was highest plus 3-5° C. The Tm was determined to be the temperature at the midpoint between the highest and lowest fluorescent signals on the curve. Results of the assay for compounds 1.18, 1.21 and 1.25 are in the following table and FIG. 1.

Data set [5] is described as follows: Chemical stability in PBS buffer. It counts as physicochemical. On the procedure:
10 mM compound working solutions were made by adding 10 μL of a 50 mM DMSO stock solution in 40 μL methanol. To make 20 μM compound working solutions, 1 μL of a 10 mM stock solution is added to 499 μL of methanol. Internal standard and quenching solutions were prepared by dissolving 1 mg/mL of terfenadine or tolbutamide in appropriate amounts of DMSO. A quenching solution was prepared containing 25 ng/ml terfenadine plus 50 ng/ml tolbutamide by diluting both stock solutions together in a 1:1 mixture of methanol:acetonitrile. Phosphate buffered saline (PBS) solutions at pH5 and pH7 were prepared by adjusting the pH of stock PBS with concentrated hydrochloric acid. To tubes labeled with a pre-determined time point (0, 5, 15, 30, 60, 120 min) was added 2 μL of 20 μM compound working solution. In each tube, 38 μL of PBS buffer was added to the vial, vortexed, and incubated at 37° C. for the corresponding time. After incubation, 300 μL of the quenching solution containing internal standard was added to the tube and vortexed to mix. The sample was centrifuged at 4000 rpm for 15 min, and 100 μL of supernatant transferred to a 0.65 ml tube for LC/MS analysis. Each compound and timepoint was analyzed by reverse phase HPLC with MS detection performed using a Sciex API 4500 Qtrap.

For data set [6] the following is noted: in water; cited from earlier work.
The mark [7] stands for this setting: PBS pH 5, 37° C., read-out: Chem stability (t ½ @ pH = 5).
The mark [8] stands for this setting: PBS pH 7, 37° C., read-out: Chem stability (t ½ @ pH = 7).

For the molecule `C[C@H](CCCC(C)(C)O)[C@H]1CC[C@H]2[C@@H]3CC=C4C[C@@H](OC(=O)CCC(=O)O)CC[C@]4(C)[C@H]3CC[C@]12C` [Compound 1.18], the half-life at 0.1 µM in data set [1] and in data set [3] was more than 8.33 h each time. The “solubility (in words)” value in data set [2] is recorded as “limited solubility”. Moreover, the “Δ Tm (° C.) Mean (n = 2)” value in data set [4] is −5.7 °C. Further, the half-life at 1 µM in data set [5] (setting [7]) and in data set [5] (setting [8]) was more than 8.33 h throughout.
Turning to `C[C@H](CCCC(C)(C)O)[C@H]1CC[C@H]2[C@@H]3CC=C4C[C@@H](OC(=O)CC[C@H](N)C(=O)O)CC[C@]4(C)[C@H]3CC[C@]12C` [Compound 1.21], the “Δ Tm (° C.) Mean (n = 2)” value in data set [4] is −1.7 °C.
`C[C@H](CCCC(C)(C)O)[C@H]1CC[C@H]2[C@@H]3CC=C4C[C@@H](OC(=O)OCC[N+](C)(C)C)CC[C@]4(C)[C@H]3CC[C@]12C.[I-]` [Compound 1.25]: the half-life at 0.1 µM in data set [1] and in data set [3] was more than 8.33 h each time. Moreover, the “Δ Tm (° C.) Mean (n = 2)” value in data set [4] was −1.8 °C. In addition, the half-life at 1 µM in data set [5] (setting [7]) and in data set [5] (setting [8]) was more than 8.33 h each time.
Take `CC(C)CCC[C@@H](C)[C@H]1CC[C@H]2[C@@H]3CC=C4C[C@@H](O)CC[C@]4(C)[C@H]3CC[C@]12C` [cholesterol]: the aqueous solubility entry in data set [6] was “less than 0.5 mg/100 mL”.
